Here are results for one molecule from patent US11903957B2, “Composition for preventing, ameliorating, or treating sleep disturbance comprising flavonoid compound as effective component” (KOREA INSTITUTE OF ORIENTAL MEDICINE, priority 2018, dated 2024).

The test system of one assay is cholecystokinin. Put plainly: mRNA expression level of cholecystokinin in cerebral cortex (real-time PCR), caffeine-induced sleep disturbance. The format is in vivo, mouse. The conditions noted are these: 30 mg/kg saponarin or 200 mg/kg St. John's wort orally for 14 days, caffeine i.p.; cortex obtained on Day 15; compared to control; FIG. 5B. As to the method: (§1) 30 mg/kg saponarin (Sigma-Aldrich, St. Louis, Mo., USA; dissolved in 0.5% CMC solution) and 200 mg/kg St. John's wort (dissolved in 0.5% CMC solution) were aliquoted to satisfy the administration amount and orally administered one hour before the caffeine administration. To the normal and stress control, 0.5% CMC solution was orally administered while 30 mg/kg saponarin was administered to the saponarin group and 200 mg/kg St. John's wort was administered to the positive control, in an amount of 0.1 ml for each.
(§2) Nine-week old male C57BL/6 mouse with bodyweight of 20 to 22 g was obtained from DBL Co., Ltd. (Eumseong-Gun, Chungcheong-Bukdo, Korea). […]
(§3) Expression pattern of the gene in cerebral cortex, which has been removed from each test animal upon the completion of the test, was determined by real-time PCR. The cerebral cortex tissues of a mouse were treated with RNAzolB (Tel-Test) to extract RNA, and then analyzed by cDNA and real-time PCR instrument using One-step SYBR Green PCR kit (AB science).
(§4) The cerebral cortex tissues were added with 500 μl of RNAzol(B), disrupted using a homogenizer, and then added with 50 μl of chloroform (CHCl3) followed by mixing again for 15 seconds. […] Real time quantitative PCR was carried out by using Applied Biosystems 7500 Real-Time PCR system (Applied Biosystems, USA). […]
(In general: In qPCR the cycle at which signal appears reflects the starting amount.)

The test system of assay [1] is C57BL/6 mouse induced to have sleep disturbance by caffeine. Put plainly: Open field test in animal model with sleep disturbance induced by caffeine. In kind it is in vivo. The settings on record: 30 mg/kg saponarin or 200 mg/kg St. John's wort orally for 14 days, compared to control. The procedure: as §1
Nine-week old male C57BL/6 mouse with bodyweight of 20 to 22 g was obtained from DBL Co., Ltd. (Eumseong-Gun, Chungcheong-Bukdo, Korea). The animal was supplied with a sufficient amount of water and solid feed (not added with any antibiotics, Samyang Animal Feed Co.) till the test day, and it was used for the experiment after acclimation for 1 week under an environment with temperature of 22±2° C., humidity of 55±15%, and 12-hour light and dark cycle. The experiment was carried out as illustrated in FIG. 1. Chemicals were orally administered every day for 14 days in total, and, according to intraperitoneal administration of 10 mg/kg caffeine 1 hour thereafter, sleep disturbance was induced.
Open field test is to determine sleep disturbance and amelioration level obtained by pharmaceutical in which the determination is made by measuring the voluntary movement of a mouse after entering an unfamiliar field for the first time. A mouse was placed at the center (30×30×30 cm) of a white box, which is made of white acryl, and then travel distance (total distance moved), mobility time, mobility frequency and immobility time for 1 hour were analyzed by using Video tracking software (Ethovision XT, Noldus, Nederland).
The saponarin administration group was orally administered with 30 mg/kg saponarin. After one hour, the animal was intraperitoneally administered with 10 mg/kg caffeine to induce sleep disturbance caused by caffeine for 14 days. Then, travel distance of the mouse was measured.
Then, the mobility time and mobility frequency were measured.
Thereafter, the immobility time of mouse was measured.

Assay [2] relates to SD rat induced to have sleep disturbance by stress. Put plainly: Electroencephalography (EEG) measurement in animal model with sleep disturbance induced by stress. In kind it is in vivo. The settings on record: foot pad electric shock stress for 5 days, compared to stress control. The procedure: The saponarin administration group was administered orally with 0.1 ml of saponarin, 30 minutes before the stress application. The normal and stress control were administered orally with 0.1 ml of a solvent. Operation was carried out for four divided groups, i.e., normal, control, saponarin, and positive control (St. John's wort), and total 24 animals were used, i.e., 6 animals per group.
A male rat (7 week old) was suitably fed with solid feed and water till the test day. After the acclimation for 1 week in an environment in which temperature of 23 to 25° C., humidity of 45 to 60%, and illuminance of 200 to 300 LUX, and 12 hour light and dark cycle are maintained, the animals were subjected to the test. For the operation, a 7-week old Sprague Dawley (SD) rat was anesthetized by intraperitoneal injection of 40 mg/kg pentobarbital, and then placed and fixed on a stereotaxic instrument (Stoelting CO, USA) such that the bregma and lambda are in horizontal alignment. After suppressing subgaleal bleeding, hairs were shaved and the skull was exposed by excising the scalp and removing the periosteum. Based on the anatomy drawing by Paxinos & Watson, a hole was created by using drill, an electrode was inserted to reach the dura mater, and an electrode composed of two silver wires was inserted to neck muscle to record an electromyogram. On top of the cranial bone of cerebellum, pins attached with an electrode for recording an electroencephalogram and an electrode for recording an electromyogram were placed and fixed on top of the cranial bone by applying dental cement. […]
After the stress for 5 days, the rat was orally administered with each pharmaceutical, and, after 30 minutes, EEG recording was carried out in a light-blocking acrylic cylinder (PM 8:00 to AM 8:00). The wake time and sleep (REM and NonREM) time were recorded by using SleepSign Ver. […]
After 30 minutes, foot pad electric shock was applied to the SD rats to induce for 5 days sleep disturbance caused by stress. Wake time was then measured for each rat.

The test system of a further assay is neuropeptide Y. Put plainly: mRNA expression level of neuropeptide Y in cerebral cortex (real-time PCR), caffeine-induced sleep disturbance. In kind it is in vivo, mouse. The conditions noted are these: 30 mg/kg saponarin or 200 mg/kg St. John's wort orally for 14 days, caffeine i.p.; cortex obtained on Day 15; compared to control; FIG. 5A. The procedure:
as §1, §2, §3, §4

Another assay concerns GABA A α1 receptor. The assay can be described thus: mRNA expression level of GABA A α1 receptor in cerebral cortex (real-time PCR), caffeine-induced sleep disturbance. The format is in vivo, mouse. The settings on record: 30 mg/kg saponarin or 200 mg/kg St. John's wort orally for 14 days, caffeine i.p.; cortex obtained on Day 15; compared to control; FIG. 6, p<0.01. The procedure:
as §1, §2, §3, §4

In the case of `O=c1cc(-c2ccc(O)cc2)oc2cc(O[C@@H]3O[C@H](CO)[C@@H](O)[C@H](O)[C@H]3O)c([C@@H]3O[C@H](CO)[C@@H](O)[C@H](O)[C@H]3O)c(O)c12` [saponarin, (1S)-1,5-anhydro-1-[7-(beta-D-glucopyranosyloxy)-5-hydroxy-2-(4-hydroxyphenyl)-4-oxo-4H-chromen-6-yl]-D-glucitol], the “mRNA expression of cholecystokinin in cerebral cortex” value in the assay with cholecystokinin was “show increased expression or tend to show increased expression in statistically significant sense”. Further, the “travel distance (total distance moved), open field test” value in assay [1] (10 mg/kg caffeine i.p. 1 hour later, FIG. 2, p<0.05) is listed as “decreased in significant sense”. The “mobility time, open field test” value in assay [1] (10 mg/kg caffeine i.p., FIG. 3A, p<0.01) was “decreased in significant sense”. Further, the “mobility frequency, open field test” value in assay [1] (10 mg/kg caffeine i.p., FIG. 3B, p<0.01) is recorded as “decreased in significant sense”. Further, in assay [1] (10 mg/kg caffeine i.p., FIG. 4), the “immobility time, open field test” value is “increased”. The “wake time during sleep by EEG” value in assay [2] (30 mg/kg saponarin or 200 mg/kg St. John's wort orally, FIG. 8, p<0.05) was “decreased in significant sense”. The “REM sleep time by EEG” value in assay [2] (30 mg/kg saponarin orally, FIG. 9) is listed as “tends to increase”. In addition, the “NonREM sleep time by EEG” value in assay [2] (30 mg/kg saponarin orally, FIG. 10) is on record as “tends to increase”. In the assay with neuropeptide Y, the “mRNA expression of neuropeptide Y in cerebral cortex” value is listed as “show increased expression or tend to show increased expression in statistically significant sense”. Moreover, the “mRNA expression of GABA A α1 receptor in cerebral cortex” value with GABA A α1 receptor is reported as “increased mRNA expression of GABA A α1 receptor in significant sense”.
